Earlier results as cited in patent US11471478B2, “Use of cyclodextrins in diseases and disorders involving phospholipid dysregulation” (priority 2017, dated 2022).
Marks after values point to notes of the source that are not given here.

Key:
[1] = system: mice/rats; settings: in vivo; cited from earlier work
[2] = i.v.; cited from earlier work
[3] = system: BBB; settings: cited from earlier work
[4] = system: keratinocytes; settings: cited from earlier work
[5] = system: rats; settings: rat, in vivo, iv; cited from earlier work
[6] = system: whole blood; settings: cited from earlier work
[7] = target: T1, breast cancer resistance protein (BCRP) (Homo sapiens, UniProt Q9UNQ0); settings: cited from earlier work
T1 sequence (Q9UNQ0 1-655): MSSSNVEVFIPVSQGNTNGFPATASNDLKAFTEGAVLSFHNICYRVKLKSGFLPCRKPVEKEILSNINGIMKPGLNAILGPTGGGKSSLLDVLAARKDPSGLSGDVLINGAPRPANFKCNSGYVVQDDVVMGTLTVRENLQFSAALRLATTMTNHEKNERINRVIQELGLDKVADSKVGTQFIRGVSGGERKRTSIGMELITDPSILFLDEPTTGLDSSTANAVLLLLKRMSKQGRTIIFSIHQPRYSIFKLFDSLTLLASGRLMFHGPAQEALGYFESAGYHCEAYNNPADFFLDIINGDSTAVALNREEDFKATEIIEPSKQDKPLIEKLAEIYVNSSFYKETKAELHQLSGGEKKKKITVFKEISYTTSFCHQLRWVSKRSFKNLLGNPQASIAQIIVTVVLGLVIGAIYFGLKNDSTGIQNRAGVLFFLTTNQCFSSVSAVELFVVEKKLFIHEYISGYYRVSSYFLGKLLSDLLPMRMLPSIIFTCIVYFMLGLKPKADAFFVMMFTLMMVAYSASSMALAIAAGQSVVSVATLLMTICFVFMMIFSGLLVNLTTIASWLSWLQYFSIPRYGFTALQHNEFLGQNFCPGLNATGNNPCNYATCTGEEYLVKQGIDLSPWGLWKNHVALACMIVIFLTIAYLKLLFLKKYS

[8] = system: fibroblasts of lysosomal storage diseases; settings: about 6 mM α-CD, about 8 mM HP-β-CD; cited from earlier work
[9] = system: HeLa cells transfected with α-synuclein; settings: 20 mM for 1 hr; cited from earlier work

OC[C@H]1O[C@@H]2O[C@H]3[C@H](O)[C@@H](O)[C@@H](O[C@H]4[C@H](O)[C@@H](O)[C@@H](O[C@H]5[C@H](O)[C@@H](O)[C@@H](O[C@H]6[C@H](O)[C@@H](O)[C@@H](O[C@H]7[C@H](O)[C@@H](O)[C@@H](O[C@H]8[C@H](O)[C@@H](O)[C@@H](O[C@H]1[C@H](O)[C@H]2O)O[C@@H]8CO)O[C@@H]7CO)O[C@@H]6CO)O[C@@H]5CO)O[C@@H]4CO)O[C@@H]3CO [β-CD, beta-cyclodextrin, reference compound]
LD50 i.v./i.p. in mice/rats [1]: 0.8/1.0 ^4) g/kg | half-life (t1/2) after i.v. in rats [2]: 20 min | Transport across BBB ([3]; 2 h, 1 mM): 26.7 (1 mM) % | toxicity on the BBB model [3]: similarly safe | caspase-dependent apoptotic cell death [4]: induces caspase-dependent apoptotic cell death | i.v. toxicity, 1 g/kg daily [5]: all died ≤ 4 d | whole blood TD50 [6]: 3.6 mM/L

methyl-β-cyclodextrin [M-β-CD]
decrease in activity of BCRP [7]: 40% | reduction of lysosomal storage [8]: most effective cyclodextrin | co-location of α-synuclein with the cell membrane [9]: dramatically reduced

CN1CCCC1c1cccnc1 (centres unmarked) [nicotine]
transported through the BBB ([3]; after 2 h of incubation, in vitro): 96%
